Holding throughout (type): biochemical
Assay [1] addresses T1, Blk(m) (Mus musculus, UniProt P16277).
T1 construct: purchased Upstate Biotechnology (Dundee, UK), KinaseProfiler service
The experiment in a line: Upstate KinaseProfiler enzyme assay, Blk. Conditions: 500 nM compound; read-out: Percent inhibition at 500 nM Blk(m). As to the method: (§1) Further enzyme assays were conducted at Upstate Biotechnology (Dundee, UK) in the KinaseProfiler™ Assay system.
(§2) The general protocol is as follows. All kinases are pre-diluted to a 10× working concentration prior to addition into the assay. The composition of the dilution buffer for the kinases is 20 mM MOPS pH 7.0, 1 mM EDTA, 0.1% β-mercaptoethanol, 0.01% Brij-35, 5% glycerol, 1 mg/ml BSA. All substrates are dissolved and diluted to working stocks in de-ionised water.

The target in assay [2] is T2, Bmx(h) (Homo sapiens, UniProt P51813).
T2 construct: purchased Upstate Biotechnology (Dundee, UK), KinaseProfiler service
T2 sequence (P51813 1-675): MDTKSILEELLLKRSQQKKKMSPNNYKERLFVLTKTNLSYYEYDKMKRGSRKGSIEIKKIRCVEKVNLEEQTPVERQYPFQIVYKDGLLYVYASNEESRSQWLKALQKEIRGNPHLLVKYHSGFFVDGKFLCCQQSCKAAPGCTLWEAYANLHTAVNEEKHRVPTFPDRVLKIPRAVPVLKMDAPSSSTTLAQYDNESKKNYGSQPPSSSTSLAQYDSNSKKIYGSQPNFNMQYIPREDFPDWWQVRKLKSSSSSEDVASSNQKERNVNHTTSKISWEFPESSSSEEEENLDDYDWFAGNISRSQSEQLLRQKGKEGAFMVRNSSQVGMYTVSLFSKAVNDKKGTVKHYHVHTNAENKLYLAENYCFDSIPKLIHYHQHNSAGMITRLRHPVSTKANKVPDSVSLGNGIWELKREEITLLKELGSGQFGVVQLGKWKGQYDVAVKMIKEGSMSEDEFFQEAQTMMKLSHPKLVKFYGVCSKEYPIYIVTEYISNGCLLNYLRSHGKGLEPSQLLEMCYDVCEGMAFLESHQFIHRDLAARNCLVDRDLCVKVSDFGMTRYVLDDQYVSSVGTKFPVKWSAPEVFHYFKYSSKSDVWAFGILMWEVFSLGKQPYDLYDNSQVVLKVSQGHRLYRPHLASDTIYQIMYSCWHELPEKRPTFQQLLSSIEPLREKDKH
Kind of assay: Upstate KinaseProfiler enzyme assay, Bmx. Conditions: 500 nM compound; read-out: Percent inhibition at 500 nM Bmx(h). As to the method: as §1, §2

Assay [3] deals with T3, Flt 1(h) (Homo sapiens, UniProt P17948).
T3 construct: purchased Upstate Biotechnology (Dundee, UK), KinaseProfiler service
T3 sequence (P17948 27-1338): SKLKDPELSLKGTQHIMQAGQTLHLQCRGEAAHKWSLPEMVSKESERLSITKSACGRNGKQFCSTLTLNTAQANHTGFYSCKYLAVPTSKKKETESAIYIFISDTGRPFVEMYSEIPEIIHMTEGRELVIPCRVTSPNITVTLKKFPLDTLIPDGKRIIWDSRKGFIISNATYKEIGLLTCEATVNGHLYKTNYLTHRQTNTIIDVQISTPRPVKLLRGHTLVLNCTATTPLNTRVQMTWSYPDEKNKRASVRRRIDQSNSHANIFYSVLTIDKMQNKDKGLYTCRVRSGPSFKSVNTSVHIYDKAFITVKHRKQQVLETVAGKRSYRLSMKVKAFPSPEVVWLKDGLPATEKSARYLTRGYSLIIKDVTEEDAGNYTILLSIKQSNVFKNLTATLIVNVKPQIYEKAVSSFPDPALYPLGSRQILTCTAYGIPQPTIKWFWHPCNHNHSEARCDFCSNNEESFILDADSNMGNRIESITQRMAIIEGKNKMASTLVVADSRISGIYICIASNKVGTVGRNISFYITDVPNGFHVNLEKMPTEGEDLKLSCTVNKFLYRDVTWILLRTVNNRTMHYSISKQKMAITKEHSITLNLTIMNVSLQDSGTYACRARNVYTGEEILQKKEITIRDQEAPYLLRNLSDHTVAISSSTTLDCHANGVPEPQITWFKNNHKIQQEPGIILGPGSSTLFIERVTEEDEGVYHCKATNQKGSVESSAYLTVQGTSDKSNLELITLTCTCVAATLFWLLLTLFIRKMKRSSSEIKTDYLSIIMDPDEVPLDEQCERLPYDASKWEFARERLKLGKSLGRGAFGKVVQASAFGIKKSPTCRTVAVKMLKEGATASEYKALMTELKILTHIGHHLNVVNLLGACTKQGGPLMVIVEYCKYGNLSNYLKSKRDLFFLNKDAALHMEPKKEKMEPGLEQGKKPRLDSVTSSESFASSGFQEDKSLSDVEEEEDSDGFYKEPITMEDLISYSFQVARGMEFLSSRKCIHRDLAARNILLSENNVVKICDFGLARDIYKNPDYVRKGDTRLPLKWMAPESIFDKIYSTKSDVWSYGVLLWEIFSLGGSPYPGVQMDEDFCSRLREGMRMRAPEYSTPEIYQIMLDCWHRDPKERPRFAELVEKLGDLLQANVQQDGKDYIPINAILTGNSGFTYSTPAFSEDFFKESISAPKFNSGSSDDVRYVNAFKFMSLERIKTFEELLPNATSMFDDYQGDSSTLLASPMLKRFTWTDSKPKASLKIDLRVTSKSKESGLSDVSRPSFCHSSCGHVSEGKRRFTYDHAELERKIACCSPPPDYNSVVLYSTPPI
The experiment in a line: Upstate KinaseProfiler enzyme assay, Flt 1. The following applies: 500 nM compound; read-out: Percent inhibition at 500 nM Flt 1(h). As to the method:
as §1, §2

Assay [4] deals with T4, Flt 4(h) (Homo sapiens, UniProt P35916).
T4 construct: purchased Upstate Biotechnology (Dundee, UK), KinaseProfiler service
T4 sequence (P35916 25-1363): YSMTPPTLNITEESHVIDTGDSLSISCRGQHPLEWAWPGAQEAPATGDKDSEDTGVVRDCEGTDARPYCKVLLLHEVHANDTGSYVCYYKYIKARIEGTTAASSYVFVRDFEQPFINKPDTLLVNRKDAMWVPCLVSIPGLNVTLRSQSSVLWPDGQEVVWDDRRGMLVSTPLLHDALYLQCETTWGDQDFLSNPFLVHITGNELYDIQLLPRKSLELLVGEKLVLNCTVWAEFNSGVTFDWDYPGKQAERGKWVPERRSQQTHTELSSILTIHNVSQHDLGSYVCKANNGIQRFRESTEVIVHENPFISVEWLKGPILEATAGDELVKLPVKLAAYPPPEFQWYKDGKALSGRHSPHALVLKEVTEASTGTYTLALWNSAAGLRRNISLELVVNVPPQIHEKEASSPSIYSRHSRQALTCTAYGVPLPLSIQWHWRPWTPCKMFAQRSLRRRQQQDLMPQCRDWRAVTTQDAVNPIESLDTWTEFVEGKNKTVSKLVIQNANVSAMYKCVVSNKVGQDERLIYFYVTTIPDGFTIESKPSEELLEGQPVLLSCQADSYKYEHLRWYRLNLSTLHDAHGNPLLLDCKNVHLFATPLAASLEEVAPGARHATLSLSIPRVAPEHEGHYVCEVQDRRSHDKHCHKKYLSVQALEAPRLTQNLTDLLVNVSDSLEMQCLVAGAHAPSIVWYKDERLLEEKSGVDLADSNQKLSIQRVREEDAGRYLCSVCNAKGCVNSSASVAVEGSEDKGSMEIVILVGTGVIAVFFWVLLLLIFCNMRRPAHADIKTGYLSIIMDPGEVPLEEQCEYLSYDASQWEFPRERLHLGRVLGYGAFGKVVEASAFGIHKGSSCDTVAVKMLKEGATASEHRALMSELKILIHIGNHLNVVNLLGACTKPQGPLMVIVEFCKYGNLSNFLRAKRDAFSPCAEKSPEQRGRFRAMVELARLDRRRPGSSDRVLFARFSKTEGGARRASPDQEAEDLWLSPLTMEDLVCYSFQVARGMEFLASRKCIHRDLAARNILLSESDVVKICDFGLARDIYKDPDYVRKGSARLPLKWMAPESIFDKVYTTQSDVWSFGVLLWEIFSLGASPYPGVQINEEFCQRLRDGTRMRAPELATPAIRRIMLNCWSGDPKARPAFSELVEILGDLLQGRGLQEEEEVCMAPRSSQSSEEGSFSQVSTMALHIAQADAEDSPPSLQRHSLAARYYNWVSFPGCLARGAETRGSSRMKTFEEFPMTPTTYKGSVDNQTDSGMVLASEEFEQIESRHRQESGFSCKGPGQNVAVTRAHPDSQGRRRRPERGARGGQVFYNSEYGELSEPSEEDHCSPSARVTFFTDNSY
Kind of assay: Upstate KinaseProfiler enzyme assay, Flt 4. Conditions: 500 nM compound; read-out: Percent inhibition at 500 nM Flt 4(h). As to the method:
as §1, §2

Each structure is given as a SMILES string.

T1 sequence (P16277 whole entry): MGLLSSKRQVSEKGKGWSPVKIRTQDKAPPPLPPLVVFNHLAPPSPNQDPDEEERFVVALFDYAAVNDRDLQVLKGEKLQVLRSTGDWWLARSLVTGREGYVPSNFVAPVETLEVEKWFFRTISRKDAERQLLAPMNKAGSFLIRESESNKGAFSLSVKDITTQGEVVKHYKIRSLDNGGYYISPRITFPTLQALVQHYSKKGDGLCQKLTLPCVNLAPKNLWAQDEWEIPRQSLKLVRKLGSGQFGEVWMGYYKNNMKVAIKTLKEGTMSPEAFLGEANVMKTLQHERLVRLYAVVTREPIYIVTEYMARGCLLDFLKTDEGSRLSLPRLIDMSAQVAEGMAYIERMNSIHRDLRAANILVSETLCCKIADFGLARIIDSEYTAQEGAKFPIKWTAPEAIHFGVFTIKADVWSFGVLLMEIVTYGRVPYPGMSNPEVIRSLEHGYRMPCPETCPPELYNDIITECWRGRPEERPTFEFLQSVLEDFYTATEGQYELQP

As to `C=CC(=O)Nc1cccc(Sc2ccnc(Nc3ccc(N4CCOCC4)cc3)n2)c1` [Compound 23, N-(3-(2-(4-morpholinophenylamino)pyrimidin-4-ylthio)phenyl)acrylamide], the results for the inhibition at 0.5 µM in assay [1] and in assay [2] were 97% and 100%, respectively.
Take `C=CC(=O)Nc1ccc(Sc2ccnc(Nc3ccc(N4CCOCC4)cc3)n2)cc1` [Compound 25, N-(4-(2-(4-morpholinophenylamino)pyrimidin-4-ylthio)phenyl)acrylamide]: the inhibition at 0.5 µM came to 71% in assay [1] and 97% in assay [2].
For `C=CC(=O)Nc1cccc(Nc2nccc(Sc3ccc(OC)cc3)n2)c1` [Compound 42, N-(3-(4-(4-methoxyphenylthio)pyrimidin-2-ylao)phenyl)acrylamide], in that order: 59% and 100%.
As to `C=CC(=O)Nc1ccc(Sc2ccnc(Nc3cccc(N4CCOCC4)c3)n2)cc1` [Compound 77, N-(4-(2-(3-morpholinophenylao)pyrimidin-4-ylthio)phenyl)acrylamide], the inhibition at 0.5 µM in assay [1] and in assay [2] was 100% in each case.
Consider `C=CC(=O)Nc1cccc(Sc2ccnc(Nc3cccc(N4CCOCC4)c3)n2)c1` [Compound 110, N-(3-(2-(3-morpholinophenylao)pyrimidin-4-ylthio)phenyl)acrylamide], for which the inhibition at 0.5 µM in assay [1] and in assay [2] was 100% each time.
Take `C=CC(=O)NCc1ccc(Sc2ccnc(Nc3ccc(N4CCOCC4)cc3)n2)cc1` [Compound 111, N-(4-(2-(4-morpholinophenylamino)pyrimidin-4-ylthio)benzyl)acrylamide]: the inhibition at 0.5 µM in assay [1] and in assay [2] was 100% in each case.
`C=CC(=O)NCc1cccc(Sc2ccnc(Nc3ccc(N4CCOCC4)cc3)n2)c1` [Compound 112, N-(3-(2-(4-morpholinophenylamino)pyrimidin-4-ylthio)benzyl)acrylamide]: the inhibition at 0.5 µM in assay [1] and in assay [2] was 100% each time.
On to `C=CC(=O)Nc1ccc(Sc2ccnc(Nc3ccc(N4CCOCC4)cc3)n2)cc1OC` [Compound 123, N-(2-methoxy-4-(2-(4-morpholinophenylao)pyrimidin-4-ylthio)phenyl)acrylamide], for which the inhibition at 0.5 µM in assay [1] and in assay [2] was 100% in each case.
In the case of `N#Cc1nnnn1Cc1ccc(Sc2ccnc(Nc3ccc(N4CCOCC4)cc3)n2)cc1` [Compound 155, 1-(4-(2-(4-morpholinophenylao)pyrimidin-4-ylthio)benzyl)-1H-tetrazole-5-carbonitrile], the inhibition at 0.5 µM was 40% in assay [1], 74% in assay [3], 99% in assay [4] and 86% in assay [2].
The matching figures for `N#Cc1nnn(Cc2ccc(Sc3ccnc(Nc4ccc(N5CCOCC5)cc4)n3)cc2)n1` [Compound 156, 2-(4-(2-(4-morpholinophenylao)pyrimidin-4-ylthio)benzyl)-2H-tetrazole-5-carbonitrile]: 41%, 80%, 94% and 83%.
For `Cc1cc(N)ccc1Sc1nc(Nc2ccc(N3CCOCC3)cc2)ncc1C` [Compound 162, 4-(4-ao-2-methylphenylthio)-5-methyl-N-(4-morpholinophenyl)pyrimidin-2-ae], in that order: 50%, 82%, 98% and 55%.
In the case of `C=CC(=O)Nc1ccc(Sc2nc(Nc3ccc(N4CCOCC4)cc3)ncc2C)c(C)c1` [Compound 163, N-(3-methyl-4-(5-methyl-2-(4-morpholinophenylao)pyrimidin-4-ylthio)phenyl)acrylamide], the inhibition at 0.5 µM in assay [1] came to 95%; in assay [3], 83%; in assay [4], 99%; in assay [2], 85%.
As to `Cc1cnc(Nc2ccc(N3CCOCC3)cc2)nc1Sc1c(C)cc(N)cc1C` [Compound 165, 4-(4-ao-2,6-dimethylphenylthio)-5-methyl-N-(4-morpholinophenyl)pyrimidin-2-ae], the inhibition at 0.5 µM stood at 0% in assay [1], 43% in assay [3], 99% in assay [4] and 40% in assay [2].
As for `C=CC(=O)N(C)c1ccc(Sc2nc(Nc3ccc(N4CCOCC4)cc3)ncc2C)cc1` [Compound 173, N-methyl-N-(4-(5-methyl-2-(4-morpholinophenylao)pyrimidin-4-ylthio)phenyl)acrylamide], the inhibition at 0.5 µM in assay [1] came out at 93%; in assay [3], 95%; in assay [4], 98%; in assay [2], 94%.
With `N#Cc1ncn(Cc2ccc(Sc3ccnc(Nc4ccc(N5CCOCC5)cc4)n3)cc2)c1C#N` [Compound 201, 1-(4-(2-(4-morpholinophenylao)pyrimidin-4-ylthio)benzyl)-1H-imidazole-4,5-dicarbonitrile], the inhibition at 0.5 µM in assay [1] and in assay [2] was 100% each time.
On to `Cc1cnc(Nc2ccc(N3CCOCC3)cc2)nc1Sc1ccc(N2C(=O)CSCC2=O)cc1` [Compound 231, 4-(4-(5-methyl-2-(4-morpholinophenylao)pyrimidin-4-ylthio)phenyl)thiomorpholine-3,5-dione], for which the inhibition at 0.5 µM in assay [1] is 82%; in assay [3], 95%; in assay [4] it was 100%; in assay [2] it was 99%.
For `CC#CC(=O)Nc1ccc(Sc2ccnc(Nc3cccc(N4CCOCC4)c3)n2)cc1` [Compound 233, N-(4-(2-(3-morpholinophenylao)pyrimidin-4-ylthio)phenyl)but-2-ynamide], in that order: 85%, 99%, 99% and 89%.
The matching figures for `C=CC(=O)Nc1ccc(Sc2nc(Nc3cccc(OC)c3)ncc2C)cc1` [Compound 235, N-(4-(2-(3-methoxyphenylao)-5-methylpyrimidin-4-ylthio)phenyl)acrylamide]: 86%, 86%, 99% and 79%.
For `C=CC(=O)Nc1ccc(Sc2nc(Nc3cccc(N4CCOCC4)c3)ncc2C)cc1` [Compound 237, N-(4-(5-methyl-2-(3-morpholinophenylao)pyrimidin-4-ylthio)phenyl)acrylamide], in that order: 96%, 98%, 99% and 92%.
Regarding `C=CC(=O)Nc1ccc(Sc2ccnc(Nc3ccc(N4CCN(C)CC4)cc3)n2)cc1` [Compound 238, N-(4-(2-(4-(4-methylpiperazin-1-yl)phenylao)pyrimidin-4-ylthio)phenyl)acrylamide], the inhibition at 0.5 µM in assay [1] came out at 99%; in assay [3], 97%; in assay [4], 99%; in assay [2], 90%.
Regarding `C=CC(=O)Nc1ccc(Sc2nc(Nc3ccc(N4CCN(C)CC4)cc3)ncc2C)cc1` [Compound 239, N-(4-(5-methyl-2-(4-(4-methylpiperazin-1-yl)phenylao)pyrimidin-4-ylthio)phenyl)acrylamide], the inhibition at 0.5 µM was determined as 99% in assay [1], 100% in assay [3], 100% in assay [4] and 99% in assay [2].
On to `C=CC(=O)Nc1ccc(Sc2nc(Nc3ccc(OC)c(OC)c3)ncc2C)cc1` [Compound 241, N-(4-(2-(3,4-dimethoxyphenylao)-5-methylpyrimidin-4-ylthio)phenyl)acrylamide], for which the inhibition at 0.5 µM came out at 98% in assay [1], 100% in assay [3], 100% in assay [4] and 92% in assay [2].
Regarding `C=CC(=O)Nc1ccc(Sc2nc(Nc3cccc(N4CCN(C)CC4)c3)ncc2C)cc1` [Compound 243, N-(4-(5-methyl-2-(3-(4-methylpiperazin-1-yl)phenylao)pyrimidin-4-ylthio)phenyl)acrylamide], the inhibition at 0.5 µM in assay [1] came to 99%; in assay [3], 100%; in assay [4] it was 100%; in assay [2] it was 96%.
